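Five compound concentrations were applied to cells in 96-well plates for 48 hours; endpoints were derived by simple linear interpolation of the resulting dose-response curve. At the GI50, growth is halved. Definition used: TGI = concentration required for complete inhibition of growth.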
What was measured:
Experiment in all cases: NCI anticancer screen, dose series, 48 h
[1] = system: UACC-62 melanoma
[2] = system: IGROV1 ovarian
[3] = system: HOP-92 NSCLC
[4] = system: NCI-H522 lung
[5] = system: HS 578T breast
[6] = system: UACC-257 melanoma
[7] = system: BT-549 breast
[8] = system: MALME-3M melanoma
[9] = system: SNB-75 CNS
[10] = system: CCRF-CEM leukemia
[11] = system: SK-OV-3 ovarian
[12] = system: OVCAR-5 ovarian
[13] = system: SW-620 colon
[14] = system: SN12C renal
[15] = system: KM12 colon
[16] = system: MOLT-4 leukemia
[17] = system: A549 NSCLC
[18] = system: SK-MEL-28 melanoma
[19] = system: COLO 205 colon
[20] = system: RXF 393 renal
[21] = system: UO-31 renal
[22] = system: HCC-2998 colon
[23] = system: HCT-116 colon
[24] = system: NCI-H226 lung
[25] = system: DU-145 prostate
[26] = system: M14 melanoma
[27] = system: MDA-MB-231 breast
[28] = system: NCI/ADR-RES ovarian
[29] = system: NCI-H23 lung
[30] = system: LOX IMVI melanoma
[31] = system: OVCAR-3 ovarian
[32] = system: U251 CNS
[33] = system: HOP-62 NSCLC
[34] = system: OVCAR-8 ovarian
[35] = system: OVCAR-4 ovarian
[36] = system: T-47D breast
[37] = system: ACHN renal
[38] = system: SF-295 CNS
[39] = system: TK-10 renal
[40] = system: HT29 colon
[41] = system: K-562 leukemia
[42] = system: SK-MEL-5 melanoma
[43] = system: 786-0 renal
[44] = system: SF-268 CNS
[45] = system: SNB-19 CNS
[46] = system: A498 renal
[47] = system: RPMI-8226 leukemia
[48] = system: SF-539 CNS
[49] = system: HCT-15 colon
[50] = system: NCI-H460 lung
[51] = system: MDA-MB-435
[52] = system: SR leukemia
[53] = system: HL-60(TB) leukemia
[54] = system: MCF7 breast
[55] = system: CAKI-1 renal

Question: What does the source list for `O=C(Nc1nc(-c2ccc(Cl)cc2)cs1)c1cc(O)c(O)c(O)c1`?
Answer: GI50 [1]: 158 µM; TGI [1]: 958 µM; GI50 [2]: 183 µM; TGI [2]: 939 µM; GI50 [3]: 115 µM; TGI [3]: 1050 µM; GI50 [4]: 21.4 µM; TGI [4]: 138 µM; GI50 [5]: 479 µM; TGI [5]: > 5000 µM; GI50 [6]: 278 µM; TGI [6]: 2490 µM; GI50 [7]: 252 µM; TGI [7]: 1870 µM; GI50 [8]: 266 µM; TGI [8]: 2980 µM; GI50 [9]: 162 µM; TGI [9]: 3990 µM; GI50 [10]: 79 µM; TGI [10]: 760 µM; GI50 [11]: 538 µM; TGI [11]: 3420 µM; GI50 [12]: 915 µM; TGI [12]: > 5000 µM; GI50 [13]: 168 µM; TGI [13]: > 5000 µM; GI50 [14]: 172 µM; TGI [14]: 3780 µM; GI50 [15]: 315 µM; TGI [15]: 1460 µM; GI50 [16]: 130 µM; TGI [16]: 840 µM; GI50 [17]: 276 µM; TGI [17]: > 5000 µM; GI50 [18]: 303 µM; TGI [18]: > 5000 µM; GI50 [19]: 584 µM; TGI [19]: 1810 µM; GI50 [20]: 166 µM; TGI [20]: 923 µM; GI50 [21]: 50.6 µM; TGI [21]: 569 µM; GI50 [22]: 700 µM; TGI [22]: 2080 µM; GI50 [23]: 195 µM; TGI [23]: 922 µM; GI50 [24]: 663 µM; TGI [24]: 2570 µM; GI50 [25]: 247 µM; TGI [25]: 1840 µM; GI50 [26]: 244 µM; TGI [26]: 4610 µM; GI50 [27]: 141 µM; TGI [27]: 3150 µM; GI50 [28]: 183 µM; TGI [28]: > 5000 µM; GI50 [29]: 292 µM; TGI [29]: 3030 µM; GI50 [30]: 174 µM; TGI [30]: 810 µM; GI50 [31]: 245 µM; TGI [31]: 1080 µM; GI50 [32]: 156 µM; TGI [32]: 1200 µM; GI50 [33]: 255 µM; TGI [33]: 1880 µM; GI50 [34]: 150 µM; TGI [34]: > 5000 µM; GI50 [35]: 142 µM; TGI [35]: 2490 µM; GI50 [36]: 125 µM; TGI [36]: 671 µM; GI50 [37]: 113 µM; TGI [37]: 1140 µM; GI50 [38]: 544 µM; TGI [38]: 3280 µM; GI50 [39]: 207 µM; TGI [39]: 1470 µM; GI50 [40]: 572 µM; TGI [40]: 2250 µM; GI50 [41]: 167 µM; TGI [41]: > 5000 µM; GI50 [42]: 194 µM; TGI [42]: 881 µM; GI50 [43]: 218 µM; TGI [43]: 1020 µM; GI50 [44]: 146 µM; TGI [44]: 1400 µM; GI50 [45]: 144 µM; TGI [45]: > 5000 µM; GI50 [46]: 927 µM; TGI [46]: 3480 µM; GI50 [47]: 197 µM; TGI [47]: 1680 µM; GI50 [48]: 173 µM; TGI [48]: 843 µM; GI50 [49]: 150 µM; TGI [49]: > 5000 µM; GI50 [50]: 181 µM; TGI [50]: 964 µM; GI50 [51]: 266 µM; TGI [51]: 2980 µM; GI50 [52]: 96.3 µM; TGI [52]: 1060 µM; GI50 [53]: 176 µM; TGI [53]: 907 µM; GI50 [54]: 349 µM; TGI [54]: > 5000 µM; GI50 [55]: 115 µM; TGI [55]: 660 µM

Question: With `Cc1cc(CCC(=O)NCCNc2c3ccccc3nc3ccccc23)cc(C)c1O[Si](C)(C)C(C)(C)C` as the compound, how does the TGI [1] read?
Answer: 27.6 µM

Question: What about the TGI [6] of the same compound?
Answer: 3.51 µM

Question: And the TGI [11]?
Answer: 3.01 µM

Question: And the TGI [14]?
Answer: 28.8 µM

Question: And the TGI [17]?
Answer: 1.99 µM

Question: And the TGI [18]?
Answer: 3.37 µM

Question: What about the TGI [19] of the same compound?
Answer: 2.23 µM

Question: What about the TGI [24] of the same compound?
Answer: 33.4 µM

Question: And the TGI [25]?
Answer: 2.63 µM

Question: What about the TGI [27] of the same compound?
Answer: 25.8 µM

Question: What about the TGI [28] of the same compound?
Answer: 4.44 µM

Question: And the TGI [30]?
Answer: 0.29 µM

Question: And the TGI [31]?
Answer: 3.57 µM

Question: And the TGI [35]?
Answer: 2.67 µM

Question: And the TGI [37]?
Answer: 3.05 µM

Question: What about the TGI [38] of the same compound?
Answer: 2.27 µM

Question: What about the TGI [40] of the same compound?
Answer: 1.71 µM

Question: What about the TGI [41] of the same compound?
Answer: 0.826 µM

Question: And the TGI [46]?
Answer: 2.02 µM

Question: And the TGI [48]?
Answer: 0.377 µM

Question: What about the TGI [51] of the same compound?
Answer: 1.04 µM

Question: And the TGI [53]?
Answer: 3.16 µM

Question: How did the GI50 [2] turn out when `CCn1cc(CNc2ccc(C(=O)Nc3cc4cc(OC)c(OC)cc4c(C)n3)cc2)c(C)n1` was run?
Answer: > 100 µM

Question: What about the TGI [2] of the same compound?
Answer: > 100 µM

Question: And the GI50 [5]?
Answer: 5.32 µM

Question: And the TGI [5]?
Answer: > 100 µM

Question: What about the GI50 [9] of the same compound?
Answer: 4.72 µM

Question: What about the TGI [9] of the same compound?
Answer: > 100 µM

Question: And the GI50 [12]?
Answer: > 100 µM

Question: What about the TGI [12] of the same compound?
Answer: > 100 µM

Question: And the GI50 [20]?
Answer: > 100 µM

Question: What about the TGI [20] of the same compound?
Answer: > 100 µM

Question: And the GI50 [27]?
Answer: > 100 µM

Question: What about the TGI [27] of the same compound?
Answer: > 100 µM

Question: And the GI50 [32]?
Answer: 3.64 µM

Question: What about the TGI [32] of the same compound?
Answer: > 100 µM

Question: And the GI50 [33]?
Answer: 2.71 µM

Question: And the TGI [33]?
Answer: 7.18 µM

Question: What about the GI50 [35] of the same compound?
Answer: 3.07 µM

Question: What about the TGI [35] of the same compound?
Answer: > 100 µM

Question: And the GI50 [43]?
Answer: 28.6 µM

Question: And the TGI [43]?
Answer: > 100 µM

Question: What about the GI50 [44] of the same compound?
Answer: 33.6 µM

Question: What about the TGI [44] of the same compound?
Answer: > 100 µM

Question: What about the GI50 [46] of the same compound?
Answer: 4.29 µM

Question: What about the TGI [46] of the same compound?
Answer: > 100 µM

Question: What about the GI50 [52] of the same compound?
Answer: 2.71 µM

Question: And the TGI [52]?
Answer: > 100 µM
